{"source": "patent US7374905B2", "about": "“Medium composition, method and device for selectively enhancing the isolation of anaerobic microorganisms contained in a mixed sample with facultative microorganisms” (Oxyrase, Inc., priority 2000, dated 2008)", "key": {"[1]": {"system": "P. anaerobius mixed with E. coli and P. mirabilis", "format": "cell-based"}, "[2]": {"system": "P. levii mixed with E. coli and P. mirabilis", "format": "cell-based"}, "[3]": {"system": "F. nucleatum mixed with E. coli and P. mirabilis", "format": "cell-based"}, "[4]": {"system": "Peptostreptococcus anaerobius", "details": "48 hours, cultures of Table 4"}, "[5]": {"system": "C. perfringens mixed with E. coli and P. mirabilis", "format": "cell-based"}, "Fusobacterium nucleatum": {"system": "Fusobacterium nucleatum", "details": "48 hours, cultures of Table 4"}, "[6]": {"system": "B. fragilis mixed with E. coli and P. mirabilis", "format": "cell-based"}}, "data": [{"compound": "[N-]=[N+]=[N-]", "note": "[Azide, sodium azide]", "values": [{"measurement": "Lowest concentration of azide in the tube that successfully separated the anaerobe", "setting": "[1]", "value": 0.1, "unit": "mg/mL"}, {"measurement": "Concentration of azide that inhibited growth in anoxic broth", "setting": "Escherichia coli", "value": "≤ 0.1", "unit": "mg/mL"}, {"measurement": "Lowest concentration of azide in the tube that successfully separated the anaerobe", "setting": "[2]", "value": 0.1, "unit": "mg/mL"}, {"measurement": "Lowest concentration of azide in the tube that successfully separated the anaerobe", "setting": "[3]", "value": 0.1, "unit": "mg/mL"}, {"measurement": "Level of growth (below visible turbidity)", "setting": "[4]", "value": "less than 10^7 CFU/ml"}, {"measurement": "Lowest concentration of azide in the tube that successfully separated the anaerobe", "setting": "[5]", "value": 0.1, "unit": "mg/mL"}, {"measurement": "Level of growth (below visible turbidity)", "setting": "Fusobacterium nucleatum", "value": "less than 10^7 CFU/ml"}, {"measurement": "Lowest concentration of azide in the tube that successfully separated the anaerobe", "setting": "[6]", "value": 0.2, "unit": "mg/mL"}, {"measurement": "Concentration of azide at which swarming is inhibited", "setting": "Proteus mirabilis", "value": "above 0.1 mg/ml"}]}]}
